Tested on: Energy system protein genes
Assay: DNA chip mRNA expression in yeast, energy system protein genes (Table 4)
Format: cell-based, Saccharomyces cerevisiae S288C
Experimental: Yeast (Saccharomyces cerevisiae S288C (α SUC2mal mel gap2 CUP1)) were incubated at 25° C. on YPD medium (yeast extract 1%, polypepton 2%, glucose 2%). One of toxic chemical substances was added to the cells at logarithmic growth phase, and the cells were further incubated for two hours. Cells were cultured without any chemical substance in the same condition, and were used as control. Concentrations of the chemical substances were defined to inhibit the growth of the yeast but not lead to death.
After completion of the incubation, the culture was centrifuged to collect the cells. To the cells, sodium acetate buffer (50 mM sodium acetate, 10 mM EDTA, 1% SDS) was added, and the mixture was shaken at 65° C. for five minutes, followed by returning to room temperature, and obtaining the supernatant, of which the procedures were repeated two times. To the supernatant, ½ amount of a solution of phenol/chloroform was added, and the mixture was centrifuged to give a supernatant, which was added with an equal amount of chloroform, and the mixture was centrifuged to give a supernatant. To the supernatant, an equal amount of isopropanol containing 0.3 M sodium acetate was added, and the mixture was allowed to stand at room temperature for 30 minutes, after which the mixture was centrifuged to give a sediment of the whole RNAs. Seventy % ethanol was added to the sediment, and the mixture was again centrifuged to give a sediment, which was then dried and dissolved in water. mRNA was isolated from the whole RNAs as followings. In view of the fact that a poly A chain is attached to the 3′ terminus of mRNA, a polynucleotide having a poly T structure which was immobilized on the surface of latex beads was used to trap the mRNA, and then the mRNA was washed and eluted with spine column (Oligotex-dT30<Super>mRNA Purification Kit, Takara). Reverse transcription of the mRNA was conducted with a reverse transcriptase (Super Script II Reverse Transcriptase; catalogue No. 18064-014, GibcoBRL) using fluorescence-labeled nucleotides to give cDNAs that were introduced with Cy3-dUTP or Cy5-dUTP during the reverse transcription.
The labeled cDNAs were dissolved in TE buffer (10mM Tris-HCl/1 mM EDTA, pH8.0), and the solution was dropped on the DNA chip containing the whole genes of yeast (DNA Chip Research Inc. Japan) so that the cDNAs were hybridized on the DNA chip at 65° C. for over 12 hours. The fluoresces intensity of the DNA chip was read with a scanner, and the ratio relative to the fluorescence intensity resulting from the absence of chemical substance was estimated as the following, which is shown in Tables 1 to 9: […]

Measured: The level of expressed mRNA in the presence of chemical substance/The level of expressed mRNA in the absence of chemical substance

S=C([S-])NCCNC(=S)[S-].[Zn+2] [(11), zinc N,N′-ethylenebis(dithiocarbamate)]
2.1: yeast gene YBL099W, cells incubated two hours with the chemical substance | yeast gene YKL060C, cells incubated two hours with the chemical substance
2.0: yeast gene YDR050C, cells incubated two hours with the chemical substance | yeast gene YDR178W, cells incubated two hours with the chemical substance | yeast gene YHR179W
2.7: yeast gene YGR256W
3.0: yeast gene YNL241C
2.6: yeast gene YGR008C | yeast gene YOL086C, cells incubated two hours with the chemical substance
1.3: yeast gene YBL058W, cells incubated two hours with the chemical substance | yeast gene YDR079W, cells incubated two hours with the chemical substance | yeast gene YDR231C | yeast gene YGR174C, cells incubated two hours with the chemical substance | yeast gene YGR254W | yeast gene YKL016C, cells incubated two hours with the chemical substance | yeast gene YLL041C, cells incubated two hours with the chemical substance | yeast gene YLR295C, cells incubated two hours with the chemical substance, 25° C., YPD medium | yeast gene YML120C, cells incubated two hours with the chemical substance | yeast gene YOR388C, cells incubated two hours with the chemical substance
2.4: yeast gene YAL060W | yeast gene YIL160C
4.1: yeast gene YOR178C, cells incubated two hours with the chemical substance
15.4: yeast gene YJR155W
4.7: yeast gene YDL021W
1.4: yeast gene YDL067C, cells incubated two hours with the chemical substance | yeast gene YDR377W, cells incubated two hours with the chemical substance | yeast gene YHL008C | yeast gene YHR174W | yeast gene YJL166W, cells incubated two hours with the chemical substance | yeast gene YLR038C, cells incubated two hours with the chemical substance | yeast gene YPL031C, cells incubated two hours with the chemical substance | yeast gene YPL262W, cells incubated two hours with the chemical substance
0.8: yeast gene YDL181W, cells incubated two hours with the chemical substance | yeast gene YDR529C, cells incubated two hours with the chemical substance | yeast gene YGR087C, cells incubated two hours with the chemical substance | yeast gene YKR097W | yeast gene YMR261C, cells incubated two hours with the chemical substance
2.3: yeast gene YCR105W, cells incubated two hours with the chemical substance | yeast gene YGR192C
1.5: yeast gene YCR046C, cells incubated two hours with the chemical substance | yeast gene YFR053C | yeast gene YKL148C, cells incubated two hours with the chemical substance | yeast gene YKR058W, cells incubated two hours with the chemical substance, 25° C., YPD medium | yeast gene YLR284C, cells incubated two hours with the chemical substance | yeast gene YLR395C, cells incubated two hours with the chemical substance | yeast gene YOR142W, cells incubated two hours with the chemical substance
0.4: yeast gene YGL205W, cells incubated two hours with the chemical substance
1.7: yeast gene YDL078C, cells incubated two hours with the chemical substance | yeast gene YEL039C, cells incubated two hours with the chemical substance | yeast gene YLR354C, cells incubated two hours with the chemical substance
1.2: yeast gene YBR185C, cells incubated two hours with the chemical substance | yeast gene YBR221C, cells incubated two hours with the chemical substance | yeast gene YDR298C, cells incubated two hours with the chemical substance | yeast gene YIL045W | yeast gene YIR031C, cells incubated two hours with the chemical substance | yeast gene YKL141W, cells incubated two hours with the chemical substance | yeast gene YKR009C, cells incubated two hours with the chemical substance | yeast gene YLR258W, cells incubated two hours with the chemical substance | yeast gene YML129C, cells incubated two hours with the chemical substance | yeast gene YNL202W, cells incubated two hours with the chemical substance
1.0: yeast gene YBR001C, cells incubated two hours with the chemical substance | yeast gene YDL107W, cells incubated two hours with the chemical substance | yeast gene YGL256W, cells incubated two hours with the chemical substance | yeast gene YJR048W | yeast gene YMR205C, cells incubated two hours with the chemical substance | yeast gene YMR267W, cells incubated two hours with the chemical substance, 25° C., YPD medium | yeast gene YPL240C | yeast gene YPR048W, cells incubated two hours with the chemical substance
0.6: yeast gene YLR377C, cells incubated two hours with the chemical substance
27.7: yeast gene YFL057C
1.8: yeast gene YCR012W | yeast gene YGR244C
8.2: yeast gene YCL040W
0.9: yeast gene YDL174C | yeast gene YEL024W, cells incubated two hours with the chemical substance | yeast gene YJR121W, cells incubated two hours with the chemical substance | yeast gene YMR073C, cells incubated two hours with the chemical substance | yeast gene YPL275W, cells incubated two hours with the chemical substance
1.6: yeast gene YGL191W, cells incubated two hours with the chemical substance | yeast gene YGR062C, cells incubated two hours with the chemical substance, 25° C., YPD medium | yeast gene YLR304C, cells incubated two hours with the chemical substance | yeast gene YML087C | yeast gene YNL071W
1.1: yeast gene YGL018C, cells incubated two hours with the chemical substance | yeast gene YJL121C, cells incubated two hours with the chemical substance | yeast gene YJL216C, cells incubated two hours with the chemical substance | yeast gene YJR009C | yeast gene YLR044C, cells incubated two hours with the chemical substance | yeast gene YLR134W, cells incubated two hours with the chemical substance | yeast gene YPL061W, cells incubated two hours with the chemical substance | yeast gene YPL088W
17.6: yeast gene YOL165C
21.8: yeast gene YNL331C
2.5: yeast gene YER178W | yeast gene YLR345W | yeast gene YMR323W, cells incubated two hours with the chemical substance
4.3: yeast gene YJL052W
0.7: yeast gene YDR001C | yeast gene YGL062W | yeast gene YGL187C, cells incubated two hours with the chemical substance | yeast gene YMR118C
37.0: yeast gene YPL171C
3.6: yeast gene YGR043C | yeast gene YPR184W, cells incubated two hours with the chemical substance
−0.4: yeast gene YPL276W, cells incubated two hours with the chemical substance

Source: US8192962B2, “Processes for detecting toxic substances” (Daikin Industries, Ltd., priority 2001, dated 2012)
